According to PMC11956012, “Optimization of Cyclophilin B-Targeted Tri-vector Inhibitors for Novel MASH Treatments” (Journal of Medicinal Chemistry, 2025):

How the values were obtained:
Cyp D = Cyp D (Homo sapiens, UniProt P30405)
Protocol: (§1) The cyclophilin binding properties of the compounds were assessed by Surface Plasmon Resonance (SPR) against Cyp A, B and D isoforms (Table 1, representative sensorgrams are shown in Figure 3A).[35]
Surface Plasmon Resonance (SPR)
(§2) SPR measurements were performed on a Biacore T200 instrument (Cytiva). Ni2+ -
(§3) nitrilotriacetic acid (NTA) sensor chips, 1-ethyl-3-(3-diaminopropyl) carbodiimide
(§4) hydrochloride (EDC) and N hydroxy succinimide (NHS) were purchased from Cytiva.
(§5) Immobilization and covalent stabilization of His-Cyps Pure His-cyclophilins on the NTA
(§6) sensor chip was performed essentially as described. [Wear et al., 2017, FEBS OpenBio], using
(§7) 200 nM concentrations of each protein, in Running Buffer (PBS, pH7.4; 0.05 % surfactant P20,
(§8) 2% v/v ethanol; 50 µM EDTA), at 30 µl min-1 with 60 second contact times on the activated
(§9) NTA surfaces. This gave signals of 1,921 RU for His-CypA, 1932 RU for His-CypB and 1,397
(§10) RU for His-CypD. Specific surface protein activity was assayed by passing saturating amounts
(§11) activity were obtained for His-CypA, -B and –D, respectively.
Kinetic titration experiments
(§12) Single cycle kinetic titration binding experiments were performed in triplicate at 25 °C. 3-fold
(§13) injected over the sensor surface, at 100 µl min-1 with a 90 s contact time and a 90 s dissociation
(§14) time. The sensor surface was regenerated between experiments by dissociating any formed
(§15) complex in running buffer for at least 1,200 seconds. The apparent on-rate (k+) and off-rate (k-
(§16) ) constants and the equilibrium dissociation constant (Kd) were calculated from reference

Cyp A = Cyp A (Homo sapiens, UniProt P62937)
Protocol: as §1
Surface Plasmon Resonance (SPR)
as §2, §3, §4, §5, §6, §7, §8, §9, §10, §11
Kinetic titration experiments
as §12, §13, §14, §15, §16

Cyp B = Cyp B (Homo sapiens, UniProt P23284); experiment: biochemical
Cyp B, sequence (P23284 32-216 limits assumed): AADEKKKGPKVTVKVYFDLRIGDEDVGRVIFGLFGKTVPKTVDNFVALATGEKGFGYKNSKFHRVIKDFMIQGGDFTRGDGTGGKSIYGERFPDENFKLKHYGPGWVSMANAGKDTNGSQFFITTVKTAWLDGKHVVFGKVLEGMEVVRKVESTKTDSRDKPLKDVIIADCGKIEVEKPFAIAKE
Protocol: as §1
Surface Plasmon Resonance (SPR)
as §2, §3, §4, §5, §6, §7, §8, §9, §10, §11
Kinetic titration experiments
as §12, §13, §14, §15, §16

Cyp D, sequence (P30405 42-207): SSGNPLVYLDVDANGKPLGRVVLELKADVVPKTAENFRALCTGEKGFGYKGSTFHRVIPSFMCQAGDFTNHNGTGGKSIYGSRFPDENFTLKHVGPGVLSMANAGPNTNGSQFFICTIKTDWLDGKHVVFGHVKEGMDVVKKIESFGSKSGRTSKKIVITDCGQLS
Cyp A, sequence (P62937 whole entry): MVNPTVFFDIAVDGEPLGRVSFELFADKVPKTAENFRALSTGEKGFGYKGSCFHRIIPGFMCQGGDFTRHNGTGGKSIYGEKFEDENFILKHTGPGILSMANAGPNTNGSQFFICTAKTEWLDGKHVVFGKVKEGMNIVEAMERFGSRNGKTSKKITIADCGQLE

SMILES | Kd (Cyp D) [µM] | Kd (Cyp A) [µM] | Kd (Cyp B) [µM]
CSc1ccccc1[C@H]1CCCN1C(=O)CNC(=O)N(Cc1cc(F)c(N)c(F)c1)Cc1nnn(C)n1 [Compound 5, 1-[(4-Amino-3,5-difluoro-phenyl)methyl]-1-[(2-methyltetrazol-5-yl)methyl]-3-[2-oxo-2-[(2R)-2-(2-methylsulfanylphenyl)pyrrolidin-1-yl]ethyl]urea] | 1.01 ± 0.12 | 1.16 ± 0.2 | 0.2 ± 0.04
CSc1ccccc1[C@H]1CCCN1C(=O)CNC(=O)N(Cc1cc(F)c(N)c(F)c1)Cc1cn(C)nn1 [Compound 6, 1-[(4-Amino-3,5-difluoro-phenyl)methyl]-1-[(1-methyltriazol-4-yl)methyl]-3-[2-oxo-2-[(2R)-2-(2-methylsulfanylphenyl)pyrrolidin-1-yl]ethyl]urea] | 2.97 ± 0.8 | 4.6 ± 2.4 | 0.63 ± 0.1
C#CCN(Cc1cc(F)c(N)c(F)c1)C(=O)NCC(=O)N1CCC[C@@H]1c1ccccc1SC [Compound 7, 1-[(4-Amino-3,5-difluoro-phenyl)methyl]-3-[2-oxo-2-[(2R)-2-(2-methylsulfanylphenyl)pyrrolidin-1-yl]ethyl]-1-prop-2-ynyl-urea] | 5.85 ± 2 | 8.75 ± 2.9 | 3.74 ± 0.78
CSc1ccccc1[C@H]1CCCN1C(=O)CNC(=O)N(Cc1cnc(N)nc1)Cc1nnc(C)s1 [Compound 13, 1-[(2-Aminopyrimidin-5-yl)methyl]-1-[(5-methyl-1,3,4-thiadiazol-2-yl)methyl]-3-[2-oxo-2-[(2R)-2-(2-methylsulfanylphenyl)pyrrolidin-1-yl]ethyl]urea] | 1.2 ± 0.3 | 0.67 ± 0.1 | 0.184 ± 0.007
CSc1ccccc1[C@H]1CCCN1C(=O)CNC(=O)N(Cc1cnc(N)c(Cl)c1)Cc1nnc(C)s1 [Compound 14, 1-[(6-Amino-5-chloro-3-pyridyl)methyl]-1-[(5-methyl-1,3,4-thiadiazol-2-yl)methyl]-3-[2-oxo-2-[(2R)-2-(2-methylsulfanylphenyl)pyrrolidin-1-yl]ethyl]urea] | 2.4 ± 0.43 | 0.96 ± 0.13 | 0.092 ± 0.075
CSc1ccccc1[C@H]1CCCN1C(=O)CN1C(=O)N(Cc2cnc(N)c(Cl)c2)CC1=NNC(C)=O [Compound 18, N-[[1-[(6-amino-5-chloro-3-pyridyl)methyl]-3-[2-[(2R)-2-(2-methylsulfanylphenyl) Pyrrolidin-1-yl]-2-oxo-ethyl]-2-oxo-imidazolidin-4-ylidene]amino]acetamide] | > 10 | > 10 | > 10

Next, values leading:

Kd (Cyp D) [µM] | Kd (Cyp A) [µM] | Kd (Cyp B) [µM] | SMILES
9.1 ± 0.9 | 7.1 ± 1.25 | 4.5 ± 0.5 | CSc1ccccc1[C@H]1CCCN1C(=O)CN1C(=O)N(Cc2ccc(N)c(Cl)c2)CC1=NNC(C)=O [Compound 16, N-[[1-[(4-amino-3-chloro-phenyl)methyl]-2-oxo-3-[2-oxo-2-[(2R)-2-(2-methylsulfanylphenyl)pyrrolidin-1-yl]ethyl]imidazolidin-4-ylidene]amino]acetamide]
> 10 | > 10 | > 10 | CC(=O)NN=C1CN(Cc2ccc(N)c(Cl)c2)C(=O)N1CC(=O)N1CCC[C@@H]1c1ccccc1Br [Compound 17, N-[[1-[(4-amino-3-chloro-phenyl)methyl]-3-[2-[(2R)-2-(2-bromophenyl)pyrrolidin-1-yl]-2-oxo-ethyl]-2-oxo-imidazolidin-4-ylidene]amino]acetamide]
> 10 | > 10 | > 10 | CC(=O)NN=C1CN(Cc2cnc(N)c(Cl)c2)C(=O)N1CC(=O)N1CCC[C@@H]1c1ccccc1Br [Compound 19, N-[[1-[(6-amino-5-chloro-3-pyridyl)methyl]-2-oxo-3-[2-oxo-2-[(2R)-2-(2-bromophenyl) Pyrrolidin-1-yl]ethyl]imidazolidin-4-ylidene]amino]acetamide]
